This is an account of results in patent publication US11390629B2, “1,5-disubstituted 1,2,3-triazoles are inhibitors of Rac/Cdc42 GTPases” (UNIVERSITY OF PUERTO RICO, priority 2016, dated 2022).

As a reminder, the GI50 is the concentration that inhibits growth by half. Low values mean greater sensitivity of the cells, high ones lower sensitivity of the cells.

One data set has as its system Rho. Nature of the data set: Rho activation pulldown (Rho binding domain of Rhotekin) and western blot, MDA-MB-231 cells. The data set is classed as cell-based, human. The following applies: MDA-MB-231, 250 nM; listed as MBQ-167. On the procedure: Additionally, Rac, Cdc42, or […] activation was determined, by pulldowns using the P21-binding domain (PBD) of PAK, or Rho binding domain of Rhotekin as described (2, 16). The GTP bound active Rac, Cdc42, or Rho was detected by Western blot (N=3).
For orientation: Immunoblotting shows a protein as a band on a membrane.

The subject of a further data set is GFP-HER2-BM cells. Put plainly: Cell viability assay (CellTiter 96 / MTT), GFP-HER2-BM. The following applies: Homo sapiens, 120 h. Format: cell-based. An excerpt: Effect of MBQ-167 on cell survival.
Data set [1] can be described thus: Toxicity observation: mouse weight and phenotype. The data set is classed as in vivo, mice. The following applies: 65-day study, 1 and 10 mg/kg BW; listed as MBQ-167. From the text: The mice from this study were also examined once a week for potential toxicity. […] At necropsy, livers were harvested, lysed and subjected to liver enzyme assays as a test for potential toxic effects.

Data set [2] deals with GFP-MDA-MB-231 mammary fat pad tumors. Nature of the data set: Mammary fat pad tumor growth, GFP-MDA-MB-231 cells in SCID mice. The following applies: 50 days.

Molecules are shown by their SMILES. Entries after “also recorded” stand apart in the source; their conditions may differ.

Regarding `CCn1c2ccccc2c2cc(-n3nncc3-c3ccccc3)ccc21` [I-1, 9-ethyl-3-(5-phenyl-1H-1,2,3-triazol-1-yl)-9H-carbazole], the “effect on Rho activation” value in the data set on Rho is listed as “did not affect; also recorded: does not affect; also recorded: without affecting”. Besides, in the data set on GFP-HER2-BM cells, the concentration for 50% growth inhibition (GI50) was determined as 150 nM. Also, the “weight loss or phenotypic changes” value in data set [1] is on record as “did not show any significant weight loss or phenotypic changes; also recorded: does not exert toxic effects”. The entries for the “inhibition of tumor growth” value in data set [2] (1.0 mg/kg BW i.p. 3x a week), in data set [2] (5.0 mg/kg BW i.p. 3x a week) and in data set [2] (10 mg/kg BW i.p. 3x a week) were 90%, 95% and 100%, respectively.
